Here are results for four compounds from patent US11046725B2, “Galactoside inhibitor of galectins” (GALECTO BIOTECH AB, priority 2018, dated 2021).

Read-outs that look alike come from different tables or passages of the source.

Experiment [1] deals with T1, Galectin-1 (Homo sapiens (Human), UniProt P09382). The following applies: T. Delaine, 2016; read-out: affinity to Galectin-1; cited from earlier work.
Target sequence in this assay (P09382 whole entry, species assumed): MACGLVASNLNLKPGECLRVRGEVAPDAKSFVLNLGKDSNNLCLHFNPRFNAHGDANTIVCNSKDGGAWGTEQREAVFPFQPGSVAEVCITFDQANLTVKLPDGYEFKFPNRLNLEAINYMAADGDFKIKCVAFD
A further experiment deals with galectins. The note with it: cited from earlier work.
Experiment [2] deals with T1, Galectin-1. Put plainly: Fluorescence anisotropy assay, inhibition of galectin / fluorescein tagged saccharide probe interaction. The format is binding.
Target sequence in this assay (P09382 whole entry): as the sequence (P09382 whole entry, species assumed) above
The target in the next experiment is Galectin-3 (Homo sapiens (Human), UniProt P17931). Described as above. The experiment is classed as binding. Here is the method: Experimental Procedures (Evaluation of Kd Values)
The affinity of Example 1-33 for galectins were determined by a fluorescence anisotropy assay where the compound was used as an inhibitor of the interaction between galectin and a fluorescein tagged saccharide probe as described Sörme, P., Kahl-Knutsson, B., Huflejt, M., Nilsson, U. J., and Leffler H. (2004) Fluorescence polarization as an analytical tool to evaluate galectin-ligand interactions. Anal. Biochem. 334: 36-47, (Sörme et al., 2004) and Monovalent interactions of Galectin-1 By Salomonsson, Emma; Larumbe, Amaia; Tejler, Johan; Tullberg, Erik; Rydberg, Hanna; Sundin, Anders; Khabut, Areej; Frejd, Torbjorn; Lobsanov, Yuri D.; Rini, James M.; et al, From Biochemistry (2010), 49(44), 9518-9532, (Salomonsson et al., 2010).

Galectin-3, sequence (P17931 whole entry): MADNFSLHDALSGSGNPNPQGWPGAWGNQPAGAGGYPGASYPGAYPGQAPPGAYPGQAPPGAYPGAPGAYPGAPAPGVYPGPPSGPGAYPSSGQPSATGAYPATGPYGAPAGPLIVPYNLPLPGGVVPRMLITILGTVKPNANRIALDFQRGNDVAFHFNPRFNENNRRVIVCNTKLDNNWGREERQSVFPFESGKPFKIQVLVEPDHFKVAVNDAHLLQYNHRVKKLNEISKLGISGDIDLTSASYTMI

As to `OCC1O[C@@H](SC2O[C@H](CO)C(O)C(n3cc(-c4ccsc4)nn3)[C@H]2O)C(O)C(n2cc(-c3ccsc3)nn2)[C@H]1O` (some centres unmarked), the Kd at Galectin-1 [1] is under 0.01 µM.
On to `O=C[C@H](O)[C@@H](O)[C@@H](O)[C@H](O)CO` [Galactose, D-galactose], for which the “affinity relative to lactose” value with galectins (compared with lactose) is 50-100 times lower.
For the compound `OC[C@H]1O[C@@H](O[C@H]2[C@H](O)[C@@H](O)C(O)O[C@@H]2CO)[C@H](O)[C@@H](O)[C@H]1O` (some centres unmarked) [Lactose], the Kd at galectins (Leffler, 2001, Leffler et al., 2004, read-out: Kd, all galectins) is 100 to 1000 µM.
In the case of `OC[C@H]1O[C@H](Sc2cnc(C(F)(F)F)c(Br)c2)[C@H](O)[C@@H](n2cc(-c3csc(O)n3)nn2)[C@H]1O` [Example 23, 5-Bromo-6-trifluoromethyl-3-pyridyl 3-deoxy-3-[4-(2-hydroxythiazol-4-yl)-1H-1,2,3-triazol-1-yl]-1-thio-α-D-galactopyranoside], the Kd on Galectin-1 [2] is 0.032 µM; on Galectin-3, 3.1 µM.
